Laboratory results reported in PMC10294832, “Investigation of Naphthyl–Polyamine Conjugates as Antimicrobials and Antibiotic Enhancers” (Antibiotics, 2023).
Values joined by “and” are separate entries in the source; they are usually repeats but may differ in a detail not shown here. Equal values may be shown once.

Columns and labels:
[1] = tested on: C. neoformans (ATCC 208821); assay: Antifungal MIC, C. neoformans; assay type: cell-based, Cryptococcus neoformans; settings: Cryptococcus neoformans, ATCC208821, C. neoformans (ATCC 208821); mean (n = 2)
Description: (§1) The susceptibility of bacterial strains S. aureus (ATCC 25,923 or 29213), E. coli (ATCC 25922), and P. aeruginosa (ATCC 27853) to antibiotics and compounds was determined according to previously reported protocols. Additional antimicrobial evaluation against MRSA (ATCC 43300), Klebsiella pneumoniae (ATCC 700603), Acinetobacter baumannii (ATCC 19606), Candida albicans (ATCC 90028), and Cryptococcus neoformans (ATCC 208821) was undertaken at the Community for Open Antimicrobial Drug Discovery at The University of Queensland (Australia) according to their standard protocols as reported previously.

[2] = tested on: P. aeruginosa (PAO1 or ATCC 27853); assay: Antimicrobial MIC, P. aeruginosa; assay type: cell-based; settings: Pseudomonas aeruginosa; P. aeruginosa (PAO1 or ATCC 27853); mean (n = 3); read-out: MIC P. a
Description: as §1

MRSA (ATCC 43300) = assay: Antimicrobial MIC, MRSA; assay type: cell-based, methicillin-resistant Staphylococcus aureus; settings: Staphylococcus aureus, MRSA (ATCC 43300); mean (n = 2); read-out: MIC MRSA
Description: as §1

[3] = tested on: P. aeruginosa (ATCC 27853); assay: Enhancement of doxycycline activity; assay type: cell-based, Pseudomonas aeruginosa; settings: for Dox/P.a: concentration required to restore doxycycline activity (combination MIC): doxycycline fixed at 4.5 µM (2 µg/mL), P. aeruginosa (ATCC 27853); for Dox/P.a fold change: ratio between intrinsic MIC of test compound and combination MIC, doxycycline 4.5 µM, P. aeruginosa
C. albicans (ATCC 90028) = assay: Antifungal MIC, C. albicans; assay type: cell-based; settings: Candida albicans, ATCC90028, mean (n = 2)
Description: as §1

E. coli (ATCC 25922) [4] = assay: Enhancement of erythromycin activity; assay type: cell-based, Escherichia coli; settings: for Eryth/E.c: concentration required to restore erythromycin activity (combination MIC): erythromycin fixed at 10.9 µM (8 µg/mL), E. coli (ATCC 25922); for Eryth/E.c fold change: ratio between intrinsic MIC of test compound and combination MIC, erythromycin 10.9 µM, E. coli
Description: Restoring enhancer concentrations were determined using previously reported protocols.

[5] = tested on: S. aureus (ATCC 25,923 or ATCC 29213); assay: Antimicrobial MIC, S. aureus; assay type: cell-based, Staphylococcus aureus; settings: Staphylococcus aureus, mean (n = 3)
Description: as §1

[6] = tested on: K. pneumoniae (ATCC 700603); assay: Antimicrobial MIC, K. pneumoniae; assay type: cell-based; settings: Klebsiella pneumoniae, ATCC700603, mean (n = 2)
Description: as §1

[7] = tested on: A. baumannii (ATCC 19606); assay: Antimicrobial MIC, A. baumannii; assay type: cell-based, Acinetobacter baumannii; settings: Acinetobacter baumannii, ATCC19606, A. baumannii (ATCC 19606); mean (n = 2)
Description: as §1

E. coli (ATCC 25922) [8] = assay: Antimicrobial MIC, E. coli; assay type: cell-based, Escherichia coli; settings: Escherichia coli, ATCC25922, E. coli (ATCC 25922); mean (n = 2)
Description: as §1

human red blood cells = assay: Hemolytic assay; assay type: cell-based; settings: concentration at 10% hemolytic activity on human red blood cells; mean (n = 2)
Description: Hemolysis assays were conducted using the protocols previously reported.

Cytotoxicity assay = assay type: cell-based, human; settings: human, HEK293 human embryonic kidney cells, concentration at 50% cytotoxicity on HEK293 cells; mean (n = 2)
Description: Cytotoxicity assays were conducted using the protocols previously reported.

| SMILES | melting point [°C] | MIC [1] [µM] | MIC [2] [µM] | MIC (MRSA (ATCC 43300)) [µM] | Dox/P.a: concentration required to restore doxycycline activity (combination MIC) [3] [µM] | MIC (C. albicans (ATCC 90028)) [µM] | Eryth/E.c: concentration required to restore erythromycin activity (combination MIC) (E. coli (ATCC 25922) [4]) | MIC [5] [µM] | MIC [6] [µM] | MIC [7] [µM] | MIC (E. coli (ATCC 25922) [8]) [µM] | Dox/P.a fold change [3] [fold] | Eryth/E.c fold change (E. coli (ATCC 25922) [4]) [fold] | Hemolysis HC10 (human red blood cells) [µM] | IC50 (Cytotoxicity assay) [µM] |
| --- | --- | --- | --- | --- | --- | --- | --- | --- | --- | --- | --- | --- | --- | --- | --- |
| O=C(O)CCC(=O)Nc1cccc2ccccc12 [Compound 9, 4-(Naphthalen-1-ylamino)-4-oxobutanoic Acid] | 165 to 167 | – | – | – | – | – | – | – | – | – | – | – | – | – | – |
| O=C(O)CCC(=O)Nc1ccc(-c2ccccc2)cc1 [Compound 12, 4-([1,1’-Biphenyl]-4-ylamino)-4-oxobutanoic Acid] | > 230 | – | – | – | – | – | – | – | – | – | – | – | – | – | – |
| O=C(NCCCNCCCCNCCCNC(=O)c1cccc2ccccc12)c1cccc2ccccc12.O=C(O)C(F)(F)F.O=C(O)C(F)(F)F [Compound 17a, N^1,N^4-Bis(3-(1-naphthamido)propyl)butane-1,4-diaminium 2,2,2-trifluoroacetate] | 238 to 239 | > 43.3 | 677 | > 43.3 | 271 | > 43.3 | 67.7 µM | 677 | > 43.3 | > 43.3 | 677 | 2.5 | 10 | – | – |
| O=C(NCCCNCCCCCCNCCCNC(=O)c1cccc2ccccc12)c1cccc2ccccc12.O=C(O)C(F)(F)F.O=C(O)C(F)(F)F [Compound 17b, N^1,N^6-Bis(3-(1-naphthamido)propyl)hexane-1,6-diaminium 2,2,2-trifluoroacetate] | 225 to 227 | > 41.7 | 200 | > 41.7 | 12.5 | > 41.7 | 100 µM | 200 | > 41.7 | > 41.7 | 200 | 16 | 2 | >41.7 | > 41.7 |
| O=C(CCC(=O)Nc1ccc2ccccc2c1)NCCCNCCCCCCCNCCCNC(=O)CCC(=O)Nc1ccc2ccccc2c1.O=C(O)C(F)(F)F.O=C(O)C(F)(F)F [Compound 20c, N^1,N^7-Bis(3-(4-(naphthalen-2-ylamino)-4-oxobutanamido)propyl)heptane-1,7-diaminium 2,2,2-trifluoroacetate] | – | ≤ 0.27 | > 200 | 2.2 | 6.25 | > 34.7 | 12.5 µM | 25 | > 34.7 | > 34.7 | 25 | – | 2 | >34.7 | > 34.7 |
| O=C(CCC(=O)Nc1ccc2ccccc2c1)NCCCNCCCCCCCCNCCCNC(=O)CCC(=O)Nc1ccc2ccccc2c1.O=C(O)C(F)(F)F.O=C(O)C(F)(F)F [Compound 20d, N^1,N^8-Bis(3-(4-(naphthalen-2-ylamino)-4-oxobutanamido)propyl)octane-1,8-diaminium 2,2,2-trifluoroacetate] | – | 17.1 | > 107 | > 34.2 | 53.4 | > 34.2 | 26.7 µM | 13.3 | > 34.2 | > 34.2 | 107 | > 2 | 4 | >34.2 | > 34.2 |
| O=C(CCC(=O)Nc1ccc2ccccc2c1)NCCCNCCCCCCCCCCNCCCNC(=O)CCC(=O)Nc1ccc2ccccc2c1.O=C(O)C(F)(F)F.O=C(O)C(F)(F)F [Compound 20e, N^1,N^10-Bis(3-(4-(naphthalen-2-ylamino)-4-oxobutanamido)propyl)decane-1,10-diaminium 2,2,2-trifluoroacetate] | – | 16.6 | 518 | 16.6 | 104 | > 33.2 | 13 µM and 13.0 µM | 12.9 | > 33.2 | > 33.2 | 104 | 5 | 8 | >33.2 | > 33.2 |

Continued, in another order:

| melting point [°C] | MIC [1] [µM] | MIC [2] [µM] | MIC (MRSA (ATCC 43300)) [µM] | Dox/P.a: concentration required to restore doxycycline activity (combination MIC) [3] [µM] | MIC (C. albicans (ATCC 90028)) [µM] | Eryth/E.c: concentration required to restore erythromycin activity (combination MIC) (E. coli (ATCC 25922) [4]) | MIC [5] [µM] | MIC [6] [µM] | MIC [7] [µM] | MIC (E. coli (ATCC 25922) [8]) [µM] | SMILES | Dox/P.a fold change [3] [fold] | Eryth/E.c fold change (E. coli (ATCC 25922) [4]) [fold] | Hemolysis HC10 (human red blood cells) [µM] | IC50 (Cytotoxicity assay) [µM] |
| --- | --- | --- | --- | --- | --- | --- | --- | --- | --- | --- | --- | --- | --- | --- | --- |
| 203 to 205 | > 34.3 | 300 | 0.268 | 300 | > 34.3 | 300 µM | 300 | > 34.3 | > 34.3 | 300 | O=C(CCC(=O)Nc1ccc(-c2ccccc2)cc1)NCCCNCCCCNCCCNC(=O)CCC(=O)Nc1ccc(-c2ccccc2)cc1.O=C(O)C(F)(F)F.O=C(O)C(F)(F)F [Compound 21a, N^1,N^4-Bis(3-(4-([1,1’-biphenyl]-4-ylamino)-4-oxobutanamido)propyl)butane-1,4-diaminium 2,2,2-trifluoroacetate] | 1 | 1 | 31.4 | > 34.3 |
| 200 to 202 | > 33.3 | 300 | 2.08 | 300 | > 33.3 | 300 µM | 300 | > 33.3 | > 33.3 | 300 | O=C(CCC(=O)Nc1ccc(-c2ccccc2)cc1)NCCCNCCCCCCNCCCNC(=O)CCC(=O)Nc1ccc(-c2ccccc2)cc1.O=C(O)C(F)(F)F.O=C(O)C(F)(F)F [Compound 21b, N^1,N^6-Bis(3-(4-([1,1’-biphenyl]-4-ylamino)-4-oxobutanamido)propyl)hexane-1,6-diaminium 2,2,2-trifluoroacetate] | 1 | 1 | >33.3 | > 33.3 |
| 178 to 180 | > 32.8 | 300 | 0.256 | 300 | > 32.8 | 300 µM | 200 | > 32.8 | > 32.8 | 300 | O=C(CCC(=O)Nc1ccc(-c2ccccc2)cc1)NCCCNCCCCCCCNCCCNC(=O)CCC(=O)Nc1ccc(-c2ccccc2)cc1.O=C(O)C(F)(F)F.O=C(O)C(F)(F)F [Compound 21c, N^1,N^7-Bis(3-(4-([1,1’-biphenyl]-4-ylamino)-4-oxobutanamido)propyl)heptane-1,7-diaminium 2,2,2-trifluoroacetate] | 1 | 1 | >32.8 | > 32.8 |
| 182 to 184 | > 32.4 | 300 | 0.506 | 300 | > 32.4 | 300 µM | 300 | > 32.4 | > 32.4 | 300 | O=C(CCC(=O)Nc1ccc(-c2ccccc2)cc1)NCCCNCCCCCCCCNCCCNC(=O)CCC(=O)Nc1ccc(-c2ccccc2)cc1.O=C(O)C(F)(F)F.O=C(O)C(F)(F)F [Compound 21d, N^1,N^8-Bis(3-(4-([1,1’-biphenyl]-4-ylamino)-4-oxobutanamido)propyl)octane-1,8-diaminium 2,2,2-trifluoroacetate] | 1 | 1 | >32.4 | > 32.4 |
